In patent US20220002314A1 (priority 2018, published 2022):
Where two headings read alike, the source gives them in different places.

Assays:
[1] = target: Human α2δ-1 subunit of Cav2.2 calcium channel (Homo sapiens, UniProt P54289); test: biochemical; format: binding
Human μ-opioid receptor = Human μ-opioid receptor (Homo sapiens, UniProt P35372); test: biochemical; format: binding
Sequence of Human μ-opioid receptor (P35372 whole entry): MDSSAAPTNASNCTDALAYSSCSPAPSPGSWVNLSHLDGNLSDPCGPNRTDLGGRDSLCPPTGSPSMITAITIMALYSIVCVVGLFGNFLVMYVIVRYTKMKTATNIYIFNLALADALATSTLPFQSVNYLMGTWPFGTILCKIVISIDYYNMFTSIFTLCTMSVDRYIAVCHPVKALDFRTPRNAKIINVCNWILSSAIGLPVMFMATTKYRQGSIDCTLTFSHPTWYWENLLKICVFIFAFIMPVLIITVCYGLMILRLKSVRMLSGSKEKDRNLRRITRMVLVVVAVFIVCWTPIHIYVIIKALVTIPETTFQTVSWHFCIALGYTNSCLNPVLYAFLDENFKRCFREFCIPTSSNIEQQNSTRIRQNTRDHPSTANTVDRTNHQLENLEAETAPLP

Sequence of Human α2δ-1 subunit of Cav2.2 calcium channel (P54289 25-1103): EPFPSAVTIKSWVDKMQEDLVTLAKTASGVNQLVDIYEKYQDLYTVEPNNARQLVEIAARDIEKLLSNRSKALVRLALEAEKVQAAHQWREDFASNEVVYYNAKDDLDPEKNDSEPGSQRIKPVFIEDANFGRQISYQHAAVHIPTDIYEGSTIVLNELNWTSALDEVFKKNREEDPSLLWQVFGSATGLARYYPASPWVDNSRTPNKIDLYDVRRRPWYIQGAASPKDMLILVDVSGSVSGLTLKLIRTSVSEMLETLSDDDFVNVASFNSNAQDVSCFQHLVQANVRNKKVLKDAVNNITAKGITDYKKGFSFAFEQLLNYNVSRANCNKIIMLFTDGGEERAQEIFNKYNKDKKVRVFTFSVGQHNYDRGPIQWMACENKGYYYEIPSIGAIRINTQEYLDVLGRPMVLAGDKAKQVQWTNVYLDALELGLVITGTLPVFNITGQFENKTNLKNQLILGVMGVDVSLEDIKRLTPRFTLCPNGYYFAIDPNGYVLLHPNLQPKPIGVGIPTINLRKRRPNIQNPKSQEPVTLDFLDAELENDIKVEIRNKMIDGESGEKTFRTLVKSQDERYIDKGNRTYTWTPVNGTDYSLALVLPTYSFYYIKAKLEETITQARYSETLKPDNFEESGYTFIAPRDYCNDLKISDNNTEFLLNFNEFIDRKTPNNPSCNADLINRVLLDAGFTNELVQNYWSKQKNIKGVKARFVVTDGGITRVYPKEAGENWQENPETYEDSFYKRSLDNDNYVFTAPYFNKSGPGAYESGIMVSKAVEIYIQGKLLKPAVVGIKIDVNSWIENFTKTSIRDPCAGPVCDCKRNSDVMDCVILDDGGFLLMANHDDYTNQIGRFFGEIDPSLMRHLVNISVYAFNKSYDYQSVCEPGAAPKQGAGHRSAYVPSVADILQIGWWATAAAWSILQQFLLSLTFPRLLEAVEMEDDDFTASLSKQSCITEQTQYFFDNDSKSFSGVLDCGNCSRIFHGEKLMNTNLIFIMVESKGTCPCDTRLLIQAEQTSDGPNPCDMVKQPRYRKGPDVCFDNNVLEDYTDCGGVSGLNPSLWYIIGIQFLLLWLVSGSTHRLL

Structure (SMILES) | Ki [1] [nM] | Ki (Human μ-opioid receptor) [nM] | Ki ([1]; read-out: α2δ-1 binding) [nM] | Ki (Human μ-opioid receptor; read-out: μ-binding) [nM]
CCC[C@H](c1nc2ccc(Br)cc2c(=O)n1CC)[C@H]1CCNCC1(F)F (single isomer, unassigned) [Example 189] | < 500 | > 500 |  | 
CCCC(c1nc2ccc(Br)cc2c(=O)n1CC)N1C[C@@H](C)N[C@@H](C)C1 (stereo partly drawn) [Example 1, 6-Bromo-2-(1-((3S,5R)-3,5-dimethylpiperazin-1-yl)butyl)-3-ethylquinazolin-4(3H)-one] | < 500 | > 500 |  | 
CCCC(c1nc2ccccc2c(=O)n1C)N1C[C@@H](C)N[C@@H](C)C1 (stereo partly drawn) [Example 2, 2-(1-((3S,5R)-3,5-dimethylpiperazin-1-yl)butyl)-3-methylquinazolin-4(3H)-one] | < 500 | > 500 |  | 
CCCC(c1nc2cc(C)ccc2c(=O)n1CC)N1C[C@@H](C)N[C@@H](C)C1 (stereo partly drawn) [Example 4, 2-(1-((3S,5R)-3,5-dimethylpiperazin-1-yl)butyl)-3-ethyl-7-methylquinazolin-4(3H)-one] | < 500 | > 500 |  | 
CCCC(c1nc2c(Br)c(OC)ccc2c(=O)n1CC)N1C[C@@H](C)N[C@@H](C)C1 (stereo partly drawn) [Example 5, 8-bromo-2-(1-((3S,5R)-3,5-dimethylpiperazin-1-yl)butyl)-3-ethyl-7-methoxyquinazolin-4(3H)-one] |  |  | 500 to 5000 | > 500
CCCC(c1nc2cc(OC)ccc2c(=O)n1CC)N1C[C@@H](C)N[C@@H](C)C1 (stereo partly drawn) [Example 6, 2-(1-((3S,5R)-3,5-dimethylpiperazin-1-yl)butyl)-3-ethyl-7-methoxyquinazolin-4(3H)-one] | < 500 | > 500 |  | 
CCCC(c1nc2cc(C(=O)OC)ccc2c(=O)n1CC)N1C[C@@H](C)N[C@@H](C)C1 (stereo partly drawn) [Example 7, methyl 2-(1-((3S,5R)-3,5-dimethylpiperazin-1-yl)butyl)-3-ethyl-4-oxo-3,4-dihydroquinazoline-7-carboxylate] | < 500 | 100 to 500 |  | 
CCCC(c1nc2cc(Br)ccc2c(=O)n1CC)N1C[C@@H](C)N[C@@H](C)C1 (stereo partly drawn) [Example 9, 7-bromo-2-(1-((3S,5R)-3,5-dimethylpiperazin-1-yl)butyl)-3-ethylquinazolin-4(3H)-one] | < 500 | > 500 |  | 
CCCC(c1nc2cc(O)ccc2c(=O)n1C)N1C[C@@H](C)N[C@@H](C)C1 (stereo partly drawn) [Example 10, 2-(1-((3S,5R)-3,5-dimethylpiperazin-1-yl)butyl)-7-hydroxy-3-methylquinazolin-4(3H)-one] | < 500 | > 500 |  | 
CCCC(c1nc2cc(F)ccc2c(=O)n1CC)N1C[C@@H](C)N[C@@H](C)C1 (stereo partly drawn) [Example 11, 2-(1-((3S,5R)-3,5-dimethylpiperazin-1-yl)butyl)-3-ethyl-7-fluoroquinazolin-4(3H)-one] | < 500 | > 500 |  | 
CCCC(c1nc2ccc(O)cc2c(=O)n1CC)N1C[C@@H](C)N[C@@H](C)C1 (stereo partly drawn) [Example 12, 2-(1-((3S,5R)-3,5-dimethylpiperazin-1-yl)butyl)-3-ethyl-6-hydroxyquinazolin-4(3H)-one] | < 500 | > 500 |  | 
CCCC(c1nc2c(Br)cccc2c(=O)n1CC)N1C[C@@H](C)N[C@@H](C)C1 (stereo partly drawn) [Example 13, 8-bromo-2-(1-((3S,5R)-3,5-dimethylpiperazin-1-yl)butyl)-3-ethylquinazolin-4(3H)-one] | > 5000 |  |  | > 500
CCCC(c1nc2cccc(Br)c2c(=O)n1CC)N1C[C@@H](C)N[C@@H](C)C1 (stereo partly drawn) [Example 14, 5-bromo-2-(1-((3S,5R)-3,5-dimethylpiperazin-1-yl)butyl)-3-ethylquinazolin-4(3H)-one] | < 500 | > 500 |  | 
CCCC(c1nc2cccc(O)c2c(=O)n1CC)N1C[C@@H](C)N[C@@H](C)C1 (stereo partly drawn) [Example 15, 2-(1-((3S,5R)-3,5-dimethylpiperazin-1-yl)butyl)-3-ethyl-5-hydroxyquinazolin-4(3H)-one] | < 500 | > 500 |  | 
CCCC(c1nc2ccc(Br)cc2c(=O)n1C)N1C[C@@H](C)N[C@@H](C)C1 (stereo partly drawn) [Example 16, 6-bromo-2-(1-((3S,5R)-3,5-dimethylpiperazin-1-yl)butyl)-3-methylquinazolin-4(3H)-one] | < 500 | > 500 |  | 
CCCC(c1nc2cc(Br)ccc2c(=O)n1C)N1C[C@@H](C)N[C@@H](C)C1 (stereo partly drawn) [Example 17, 7-bromo-2-(1-((3S,5R)-3,5-dimethylpiperazin-1-yl)butyl)-3-methylquinazolin-4(3H)-one] | < 500 | > 500 |  | 
CCCC(c1nc2cc(F)c(Br)cc2c(=O)n1CC)N1C[C@@H](C)N[C@@H](C)C1 (stereo partly drawn) [Example 18, 6-bromo-2-(1-((3S,5R)-3,5-dimethylpiperazin-1-yl)butyl)-3-ethyl-7-fluoroquinazolin-4(3H)-one] | < 500 | > 500 |  | 
CCCC(c1nc2cc(C)c(Br)cc2c(=O)n1CC)N1C[C@@H](C)N[C@@H](C)C1 (stereo partly drawn) [Example 19, 6-bromo-2-(1-((3S,5R)-3,5-dimethylpiperazin-1-yl)butyl)-3-ethyl-7-methylquinazolin-4(3H)-one] | < 500 | > 500 |  | 
CCCC(c1nc2c(C)cc(Br)cc2c(=O)n1CC)N1C[C@@H](C)N[C@@H](C)C1 (stereo partly drawn) [Example 20, 6-bromo-2-(1-((3S,5R)-3,5-dimethylpiperazin-1-yl)butyl)-3-ethyl-8-methylquinazolin-4(3H)-one] |  |  | > 5000 | > 500
CCCC(c1nc2ccc(Br)c(C)c2c(=O)n1CC)N1C[C@@H](C)N[C@@H](C)C1 (stereo partly drawn) [Example 21, 6-bromo-2-(1-((3S,5R)-3,5-dimethylpiperazin-1-yl)butyl)-3-ethyl-5-methylquinazolin-4(3H)-one] | < 500 | > 500 |  | 
CCCC(c1nc2ccc(Br)c(F)c2c(=O)n1CC)N1C[C@@H](C)N[C@@H](C)C1 (stereo partly drawn) [Example 22, 6-bromo-2-(1-((3S,5R)-3,5-dimethylpiperazin-1-yl)butyl)-3-ethyl-5-fluoroquinazolin-4(3H)-one] | < 500 | > 500 |  | 
CCCC(c1nc2ccc(Br)c(Cl)c2c(=O)n1CC)N1C[C@@H](C)N[C@@H](C)C1 (stereo partly drawn) [Example 23, 6-bromo-5-chloro-2-(1-((3S,5R)-3,5-dimethylpiperazin-1-yl)butyl)-3-ethylquinazolin-4(3H)-one] | < 500 | > 500 |  | 
CCCC(c1nc2ccc(NCC)cc2c(=O)n1CC)N1C[C@@H](C)N[C@@H](C)C1 (stereo partly drawn) [Example 24, 2-(1-((3S,5R)-3,5-dimethylpiperazin-1-yl)butyl)-3-ethyl-6-(ethylamino)quinazolin-4(3H)-one] | < 500 | > 500 |  | 
CCCC(c1nc2cc(NCC)ccc2c(=O)n1CC)N1C[C@@H](C)N[C@@H](C)C1 (stereo partly drawn) [Example 25, 2-(1-((3S,5R)-3,5-dimethylpiperazin-1-yl)butyl)-3-ethyl-7-(ethylamino)quinazolin-4(3H)-one] | < 500 | > 500 |  | 
CCCC(c1nc2cc(N(CC)C(=O)OC(C)(C)C)ccc2c(=O)n1CC)N1C[C@@H](C)N[C@@H](C)C1 (stereo partly drawn) [Example 26, tert-butyl (2-(1-((3S,5R)-3,5-dimethylpiperazin-1-yl)butyl)-3-ethyl-4-oxo-3,4-dihydroquinazolin-7-yl)(ethyl)carbamate] |  |  | 500 to 5000 | > 500
CCC[C@@H](c1nc2ccccc2c(=O)n1CC)N1C[C@@H](C)N[C@@H](C)C1 [Example 33, 2-((S)-1-((3S,5R)-3,5-Dimethylpiperazin-1-yl)butyl)-3-ethylquinazolin-4(3H)-one] |  |  | 500 to 5000 | 
